Patent publication US20250136652A1, “FUSION PROTEIN FOR TARGETING RECOMBINANT PROTEINS FOR DEGRADATION” (The Regents of the University of California, priority 2022, published 2025)
Residues, ends and D or L forms follow the SMILES beside them. *: point of attachment. Cbz = O=C(OCc1ccccc1)*

Experiments:
[1] = test system: STUD degradation of GFP (ubiquitin proteasome pathway); test: Inhibitor assay: rescue of GFP fluorescence in Jurkat T cells expressing SynZip STUD and GFP target; assay type: cell-based; conditions: 5 hours; for GFP fluorescence rescue relative to DMSO vehicle control: cells express functional STUD and GFP target
Procedure: FIG. 3: STUD degradation of GFP is mediated by the cullins in UPP. Representative flow cytometry distributions of GFP fluorescence of Jurkat T cells expressing the SynZip STUD described in FIG. 2B treated with one of three drugs or a DMSO vehicle control. Distributions are representative of three independent experiments.
Using the 2 plasmid system as described above, we lentivirally transduce Jurkat T cells. 72 hours after removal of lentivirus, we treat these Jurkat T cells and an untransduced control cell line with either 5 μM of the proteasomal inhibitor MG-132, 1 μM of the cullin ring ligase inhibitor MLN4924, 100 nM of the lysosomal inhibitor Bafilomycin A1, or DMSO vehicle control and incubate at 37 C for 5 hours. […] FIG. 3.
Flow cytometry: All flow cytometry data was obtained using a LSR Fortessa (BD Biosciences). All assays were run in a 96-well round bottom plate (Fisher Scientific #08-772-2C). Samples were prepared by pelleting cells in the plate using centrifugation at 400×g for 4 minutes. Supernatant was then removed and 200 μL of PBS (UCSF Cell Culture facility) was used to wash cells. The cells were again pelleted as described above and supernatant was removed. Cells were resuspended in 120 μL of Flow buffer (PBS+2% FBS) and mixed by pipetting prior to flow cytometry assay.
(§1) Inhibitor Assays: 100,000 cells were plated in a 96 well round bottom plate with either 5 μM MG-132 (Sigma-Aldrich #M7449-200UL), 1 μM MLN4924 (Active Biochem #A-1139), 100 nM Bafilomycin A1 (Enzo Life Sciences #BML-CM110-0100), or DMSO vehicle control and incubated at 37 C for 5 hours. After incubation, cells were pelleted by centrifugation at 400×g for 4 minutes. Supernatant was then removed and cells were washed once with 200 μL PBS. Cells were pelleted again (400×g for 4 minutes) and resuspended in flow buffer (PBS+2% FBS) for assay by flow cytometry.

[2] = test system: STUD knockdown of anti-CD19 4-1BB CD3zeta CAR; test: MLN4924 rescue of STUD knockdown of CD19BBz CAR expression in CD8+ primary T cells; assay type: cell-based, human; conditions: 1 μM MLN4924, 5 hours, 37 C
Procedure: FIG. 4D. Plasmid in FIG. 4A is transduced into CD8+ primary T cells and anti-CD19 4-1BB CD3zeta CAR expression and activation is assayed. Left: Cullin inhibitor MLN4924 is added to engineered T cells to rescue degradation of CAR by STUD. […] Black bars represent each condition with DMSO vehicle control. Middle: Engineered T cells are cocultured with NALM6 target cells for 72 hours and lysis is measured by flow cytometry. Lysis is calculated relative to lysis of NALM6 cells cultured with UnT T cells. Right: Median fluorescence of T cell activation marker CD25 after coculture is measured by antibody stain for CD25 and flow cytometry.
Engineered CD8+ T cells expressing were cocultured with NALM6 target cells and measured activation of the CAR by quantifying target cell lysis and expression of the T cell activation marker CD25.
as §1, with “cytometry. […]” for “cytometry.”

[3] = test system: NALM6 target cells; test: MLN4924 dose response: ON switch CAR lysis of NALM6 target cells; assay type: cell-based, human; conditions: MLN4924 1 μM to 0.015625 μM; 72 hours at 37 C; CD8+ T cells with antiCD19BBz CAR-SynZip and memSTUD
Procedure: We engineer CD8+ primary human T cells that express an antiCD19BBz CAR fused to a SynZip and a STUD to recognizes the SynZip. As a control, the CD8+ primary human T cells that express the same CAR without the SynZip and the SynZip STUD were also engineered. Both these cell lines were cocultured and an untransduced (UnT) control with NALM6 target cells for 72 hours at 37 C in the presence of various concentrations of MLN4924. Lysis of target cells was calculated by each line relative to NALM6 cells cultured alone by flow cytometry.
CD8+ primary human T cells were engineered with an antiCD19BBz CAR fused to a SynZip and a memSTUD that binds the SynZip using the same plasmids outlined in FIG. 14A by lentiviral transduction. As a control, we also lentivirally transduce CD8+ primary human T cells with an antiCD19BBz and a SynZip memSTUD which cannot bind the CAR. These engineered cells and an untransduced control were cocultured with NALM6 target cells for 72 hours at 37 C in the presence of MLN4924 ranging from 1 μM to 0.015625 μM and a DMSO vehicle control. After coculture, target cell lysis was assayed by flow cytometry. Specific target cell lysis of each cell line relative to NALM6 cells cultured alone in the same conditions was then calculated.
Co-culture assays: For all assays, T cells and target cells were co-cultured at a 1:1 ratio with cell numbers varying per assay. […]

[4] = target: GFP fused to a heterodimeric SynZip protein complementary to the binding domain on the STUD; test: cell-based or functional assay
Chain of GFP fused to a heterodimeric SynZip protein complementary to the binding domain on the STUD (chain, as listed by the source): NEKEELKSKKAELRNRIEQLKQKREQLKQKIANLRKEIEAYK

CO/C1=C\C(C)=C\[C@@H](C)[C@@H](O)[C@@H](C)C/C(C)=C/C=C/[C@H](OC)[C@@H]([C@@H](C)[C@@H](O)[C@H](C)[C@@]2(O)C[C@@H](O)[C@H](C)[C@@H](C(C)C)O2)OC1=O [Bafilomycin A1]
GFP fluorescence change relative to DMSO vehicle control ([1]; 100 nM Bafilomycin A1, 37 C): No changes to GFP fluorescence

CC(C)C[C@@H](C=O)NC(=O)[C@H](CC(C)C)NC(=O)[C@H](CC(C)C)NC(=O)OCc1ccccc1 [MG-132] (Cbz-Leu-Leu-Leu-aldehyde)
GFP fluorescence rescue relative to DMSO vehicle control ([1]; 5 μM MG-132, 37 C): can indeed be rescued

NS(=O)(=O)OC[C@@H]1C[C@@H](n2ccc3c(N[C@H]4CCc5ccccc54)ncnc32)C[C@@H]1O [MLN4924]
GFP fluorescence rescue relative to DMSO vehicle control ([1]; 1 μM MLN4924, 37 C): can indeed be rescued
rescue of STUD knockdown of CAR expression [2]: can rescue STUD knockdown of CAR expression
specific target cell lysis by CAR [3]: dose dependent

B1: synZIP STUD (Synthetic Targeter of Ubiquitination and Degradation) (designed binder)
chain: SIAATLENDLARLENENARLERDIANLERDLARLEREEAYFGSGSGSGSGSRRRG
fold change of median normalized GFP fluorescence (GFP/tagBFP), flow cytometry, Jurkat T cells [4]: 42 fold
